Data published in patent publication US20230355506A1, “ACTIVE INGREDIENT COMPLEX FOR COSMETIC PREPARATIONS” (LA PRAIRIE GROUP AG, priority 2022, published 2023).

System: collagen I A2
Assay: ELISA for collagen1A2 in ECM isolated from cultured hypodermis explants after 10 days of treatment
Format: cell-based, human
Conditions: additions (extract solvents/additives) alone
Procedure: The hypodermis was prepared and weighed out into approximately 200 mg pieces. The tissue was cultured in a submersed state in defined and serum-free hypodermis tissue culture medium (CB-EM-HYP) in an actively humidified biomedical incubator (Memmert, Germany) at 37° C. and 5% CO2.
Overnight cultivation was followed by substitution with fresh tissue culture medium. Explants were cultivated either in the presence or absence of test samples.
Over a period of 10 days, the medium was replaced daily with freshly supplemented test samples or with normal media without test samples.
After 10 days of treatment, a portion of the tissue samples was processed for the extraction of ECM proteins.
Isolated ECM was subjected to a protein estimation in accordance with the BCA method (Bicinchoninic Acid) (Sigma Aldrich), and ELISAs (Biotechne) corresponding to the antigen collagen1A2 were performed according to the manufacturer's protocol using the same amounts of proteins as were estimated from the BCA assay. A sensitive filter-based microplate reader (Accuris, USA) was used to perform readout.
The following test samples were investigated: • A. Glycolic caviar extract containing approx. 6% fish egg material, 10% water and propylene glycol ad 100. […] Lipophilic caviar extract containing 40% fish egg material, 0.02% tocopherol, 1% by weight phenoxyethanol and triglycerides ad 100. This extract was obtained from an extraction with triglycerides and phenoxyethanol of a homogenizate from fish eggs of Acipenser baerii. […] The proportion of sodium mannose 6-phosphate is 2.5% by weight. The proportion of mannose is 2.5% by weight.

SMILES | Increase in the expression of collagen I by the additions alone
O=C(O)[C@@H](O)[C@H](O)[C@H](O)[C@@H](O)C(=O)O [galactaric acid] | do not show any increase
CC(O)CO (stereo not shown) [propylene glycol] | do not show any increase
O [water] | do not show any increase
OCC(O)CO [glycerol] | do not show any increase
